Common to all, as to format: biochemical
In one test the target is mTORC (Homo sapiens (Human), UniProt P42345). As to the kind of experiment: mTOR inhibition assay (radiometric or LanthaScreen TR-FRET). (In general: TR-FRET usually uses a lanthanide donor and a delayed reading to cut background.)
Another test deals with PI3K γ (Homo sapiens (Human), UniProt P48736). As to the kind of experiment: PI 3-Kinase (human) HTRF assay, p110γ. The note with it: read-out: PI3K γ IC50.
A further test has as its target PI3K δ (Homo sapiens (Human), UniProt O00329). Nature of the test: PI 3-Kinase (human) HTRF assay, p110δ/p85α.
The target of a further test is PI3K β (Homo sapiens (Human), UniProt P42338). As to the kind of experiment: PI 3-Kinase (human) HTRF assay, p110β/p85α.
A further test deals with PI3K α (Homo sapiens (Human), UniProt P42336). As to the kind of experiment: PI 3-Kinase (human) HTRF assay, p110α/p85α.

Data on 36 compounds can be found in patent publication US9682141B2, “Combination of kinase inhibitors and uses thereof” (INTELLIKINE LLC, priority 2011, dated 2017).

PI3K γ, sequence (P48736 whole entry): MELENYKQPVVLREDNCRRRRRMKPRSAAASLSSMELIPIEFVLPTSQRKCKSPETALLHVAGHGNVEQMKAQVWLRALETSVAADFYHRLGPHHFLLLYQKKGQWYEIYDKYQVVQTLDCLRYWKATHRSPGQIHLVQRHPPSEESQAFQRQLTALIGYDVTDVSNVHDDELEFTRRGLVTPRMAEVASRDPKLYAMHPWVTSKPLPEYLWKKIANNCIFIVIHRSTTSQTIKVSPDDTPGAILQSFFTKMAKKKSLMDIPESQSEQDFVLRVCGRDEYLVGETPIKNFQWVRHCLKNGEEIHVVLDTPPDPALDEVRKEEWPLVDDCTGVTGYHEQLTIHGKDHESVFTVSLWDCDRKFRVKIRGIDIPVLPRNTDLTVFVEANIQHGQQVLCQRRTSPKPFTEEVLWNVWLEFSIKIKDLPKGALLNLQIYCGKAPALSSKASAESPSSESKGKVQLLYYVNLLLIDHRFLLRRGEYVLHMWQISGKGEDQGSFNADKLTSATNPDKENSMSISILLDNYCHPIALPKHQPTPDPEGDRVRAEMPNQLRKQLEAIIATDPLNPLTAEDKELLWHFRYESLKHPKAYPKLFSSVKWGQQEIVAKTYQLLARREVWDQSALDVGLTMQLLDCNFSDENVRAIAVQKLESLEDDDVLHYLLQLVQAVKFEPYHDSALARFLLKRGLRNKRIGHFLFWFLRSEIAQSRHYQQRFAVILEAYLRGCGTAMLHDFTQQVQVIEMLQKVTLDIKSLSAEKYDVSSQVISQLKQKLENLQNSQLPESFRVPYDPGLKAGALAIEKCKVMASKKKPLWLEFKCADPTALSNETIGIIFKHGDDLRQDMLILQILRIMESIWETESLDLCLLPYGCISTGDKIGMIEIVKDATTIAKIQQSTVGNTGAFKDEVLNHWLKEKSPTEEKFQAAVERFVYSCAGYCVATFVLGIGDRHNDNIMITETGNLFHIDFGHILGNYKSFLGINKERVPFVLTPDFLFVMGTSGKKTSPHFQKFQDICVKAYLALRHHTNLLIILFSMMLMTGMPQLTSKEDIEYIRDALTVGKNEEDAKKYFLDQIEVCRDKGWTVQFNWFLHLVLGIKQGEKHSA
mTORC, sequence (P42345 1360-2549): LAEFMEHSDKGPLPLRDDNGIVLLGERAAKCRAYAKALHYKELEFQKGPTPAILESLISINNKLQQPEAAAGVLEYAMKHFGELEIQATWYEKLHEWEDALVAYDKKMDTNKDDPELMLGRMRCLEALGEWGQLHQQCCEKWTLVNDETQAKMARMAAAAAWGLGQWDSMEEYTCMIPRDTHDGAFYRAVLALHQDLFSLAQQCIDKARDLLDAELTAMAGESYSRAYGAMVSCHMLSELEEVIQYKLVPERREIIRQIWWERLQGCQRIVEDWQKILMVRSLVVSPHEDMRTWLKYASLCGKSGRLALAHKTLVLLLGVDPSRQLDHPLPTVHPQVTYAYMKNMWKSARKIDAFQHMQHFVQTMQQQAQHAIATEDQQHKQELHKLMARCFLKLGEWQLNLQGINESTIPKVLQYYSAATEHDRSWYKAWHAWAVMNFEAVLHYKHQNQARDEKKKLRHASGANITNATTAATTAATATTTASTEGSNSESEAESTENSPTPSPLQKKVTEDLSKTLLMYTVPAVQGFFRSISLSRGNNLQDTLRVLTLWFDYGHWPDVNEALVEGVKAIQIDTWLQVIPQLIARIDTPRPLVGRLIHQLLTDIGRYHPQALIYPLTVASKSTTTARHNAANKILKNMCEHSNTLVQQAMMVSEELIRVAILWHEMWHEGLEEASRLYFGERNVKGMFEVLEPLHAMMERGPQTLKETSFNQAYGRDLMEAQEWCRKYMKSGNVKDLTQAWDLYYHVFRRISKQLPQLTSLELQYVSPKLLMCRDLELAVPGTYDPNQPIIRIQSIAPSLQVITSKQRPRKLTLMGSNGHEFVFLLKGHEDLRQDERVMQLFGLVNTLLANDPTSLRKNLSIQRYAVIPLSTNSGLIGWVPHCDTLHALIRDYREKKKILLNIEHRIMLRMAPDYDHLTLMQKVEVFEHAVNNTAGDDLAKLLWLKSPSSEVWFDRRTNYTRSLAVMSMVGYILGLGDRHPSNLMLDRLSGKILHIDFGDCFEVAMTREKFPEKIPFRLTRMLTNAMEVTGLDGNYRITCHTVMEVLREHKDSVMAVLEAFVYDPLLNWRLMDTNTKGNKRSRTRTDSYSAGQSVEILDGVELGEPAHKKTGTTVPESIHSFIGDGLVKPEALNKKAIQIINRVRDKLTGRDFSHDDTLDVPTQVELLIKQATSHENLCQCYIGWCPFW
PI3K β, sequence (P42338 whole entry): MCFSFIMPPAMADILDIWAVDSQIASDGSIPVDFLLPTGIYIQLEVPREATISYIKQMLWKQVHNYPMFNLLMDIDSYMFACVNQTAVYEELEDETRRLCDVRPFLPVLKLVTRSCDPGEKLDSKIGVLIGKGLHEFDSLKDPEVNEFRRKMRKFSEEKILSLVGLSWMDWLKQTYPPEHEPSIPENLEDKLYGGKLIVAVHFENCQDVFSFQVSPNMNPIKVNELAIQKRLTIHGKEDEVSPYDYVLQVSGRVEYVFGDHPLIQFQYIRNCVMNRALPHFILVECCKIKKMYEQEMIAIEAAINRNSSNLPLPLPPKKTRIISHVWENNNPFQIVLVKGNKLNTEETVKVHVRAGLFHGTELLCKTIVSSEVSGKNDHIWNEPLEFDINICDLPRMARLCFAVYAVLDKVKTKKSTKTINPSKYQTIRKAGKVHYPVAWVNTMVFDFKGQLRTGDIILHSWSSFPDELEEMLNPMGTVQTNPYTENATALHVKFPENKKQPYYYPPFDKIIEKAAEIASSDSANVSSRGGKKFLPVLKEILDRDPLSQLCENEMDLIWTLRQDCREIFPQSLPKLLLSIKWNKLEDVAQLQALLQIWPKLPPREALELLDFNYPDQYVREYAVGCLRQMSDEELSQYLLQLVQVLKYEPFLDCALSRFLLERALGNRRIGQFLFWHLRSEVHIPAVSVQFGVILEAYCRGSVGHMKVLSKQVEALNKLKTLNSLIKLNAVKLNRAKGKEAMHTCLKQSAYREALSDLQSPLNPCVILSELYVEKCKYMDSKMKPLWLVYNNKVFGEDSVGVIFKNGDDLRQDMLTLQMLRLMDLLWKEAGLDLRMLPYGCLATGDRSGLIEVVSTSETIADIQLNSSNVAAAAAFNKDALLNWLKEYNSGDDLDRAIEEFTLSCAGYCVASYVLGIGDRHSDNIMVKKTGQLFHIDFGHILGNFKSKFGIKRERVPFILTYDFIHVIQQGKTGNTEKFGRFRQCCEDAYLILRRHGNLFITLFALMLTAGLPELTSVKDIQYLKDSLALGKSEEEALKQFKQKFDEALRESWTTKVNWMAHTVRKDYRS
PI3K β, sequence (P27986 whole entry partner): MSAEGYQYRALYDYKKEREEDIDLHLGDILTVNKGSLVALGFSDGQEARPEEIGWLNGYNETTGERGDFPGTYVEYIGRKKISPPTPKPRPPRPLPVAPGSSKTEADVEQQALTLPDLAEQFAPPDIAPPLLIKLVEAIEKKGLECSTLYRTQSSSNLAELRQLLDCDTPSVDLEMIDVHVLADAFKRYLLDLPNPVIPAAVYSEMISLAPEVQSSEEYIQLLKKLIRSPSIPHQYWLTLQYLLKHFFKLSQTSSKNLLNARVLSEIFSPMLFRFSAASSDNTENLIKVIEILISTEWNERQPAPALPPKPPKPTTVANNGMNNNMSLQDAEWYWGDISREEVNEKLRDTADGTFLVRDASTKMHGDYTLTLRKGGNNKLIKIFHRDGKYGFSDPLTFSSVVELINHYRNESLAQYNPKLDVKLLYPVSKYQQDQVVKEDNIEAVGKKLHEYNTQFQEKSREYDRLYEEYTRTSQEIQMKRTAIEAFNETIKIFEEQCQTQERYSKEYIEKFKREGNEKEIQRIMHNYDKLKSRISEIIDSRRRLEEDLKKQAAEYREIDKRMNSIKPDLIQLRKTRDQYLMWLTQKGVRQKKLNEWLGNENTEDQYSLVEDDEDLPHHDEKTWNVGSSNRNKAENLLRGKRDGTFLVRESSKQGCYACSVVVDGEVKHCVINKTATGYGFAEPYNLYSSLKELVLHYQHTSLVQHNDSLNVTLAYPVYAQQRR
Description for PI3K α: An exemplary system is PI 3-Kinase (human) HTRF™ Assay from Upstate. […] Briefly, the assay is a time resolved FRET assay that indirectly measures PIP3 product formed by the activity of a PI3-K. The kinase reaction is performed in a microtitre plate (e.g., a 384 well microtitre plate). The total reaction volume is approximately 20 ul per well. In the first step, each well receives 2 ul of test compound in 20% dimethylsulphoxide resulting in a 2% DMSO final concentration. Next, approximately 14.5 ul of a kinase/PIP2 mixture (diluted in 1× reaction buffer) is added per well for a final concentration of 0.25-0.3 ug/ml kinase and 10 μM PIP2. The plate is sealed and incubated for 15 minutes at room temperature. To start the reaction, 3.5 ul of ATP (diluted in 1× reaction buffer) is added per well for a final concentration of 10 μM ATP. The plate is sealed and incubated for 1 hour at room temperature. The reaction is stopped by adding 5 ul of Stop Solution per well and then 5 ul of Detection Mix is added per well. The plate is sealed, incubated for 1 hour at room temperature, and then read on an appropriate plate reader. Data is analyzed and IC50s are generated using GraphPad Prism 5. For PI3K α, β, δ, and γ, the nM concentration of inhibitor to reach IC50 is provided.
Description for mTORC: The compounds described herein can be tested against recombinant mTOR (Invitrogen) in an assay containing 50 mM HEPES, pH 7.5, 1 mM EGTA, 10 mM MgCl2, 2.5 mM, 0.01% Tween, 10 μM ATP (2.5 μCi of μ-32P-ATP), and 3 μg/mL BSA. Rat recombinant PHAS-1/4EBP1 (Calbiochem; 2 mg/mL) is used as a substrate. Reactions are terminated by spotting onto nitrocellulose, which is washed with 1M NaCl/1% phosphoric acid (approximately 6 times, 5-10 minutes each). Sheets are dried and the transferred radioactivity quantitated by phosphorimaging.
For instance, one can use Invitrogen's LanthaScreen™ Kinase assay to test the inhibitors of mTOR disclosed herein. This assay is a time resolved FRET platform that measures the phosphorylation of GFP labeled 4EBP1 by mTOR kinase. The kinase reaction is performed in a white 384 well microtitre plate. The total reaction volume is 20 ul per well and the reaction buffer composition is 50 mM HEPES pH7.5, 0.01% Polysorbate 20, 1 mM EGTA, 10 mM MnCl2, and 2 mM DTT. In the first step, each well receives 2 ul of test compound in 20% dimethylsulphoxide resulting in a 2% DMSO final concentration. Next, 8 ul of mTOR diluted in reaction buffer is added per well for a 60 ng/ml final concentration. To start the reaction, 10 ul of an ATP/GFP-4EBP1 mixture (diluted in reaction buffer) is added per well for a final concentration of 10 μM ATP and 0.5 μM GFP-4EBP1. The plate is sealed and incubated for 1 hour at room temperature. […] The plate is sealed, incubated for 1 hour at room temperature, and then read on a plate reader set up for LanthaScreen™ TR-FRET. Data is analyzed and IC50s are generated using GraphPad Prism 5.

What is called IC50 is the point on the concentration scale where inhibition reaches its midpoint. Consider `C[C@H]1CN(c2cnc3ccc(-c4ccc5oc(N)nc5c4)nc3c2)CCN1`, for which the concentration for half-maximal inhibition (IC50) against mTORC was more than 10 µM; on PI3K γ it was less than 1 µM; at PI3K δ, less than 10 µM; at PI3K β it was less than 0.1 µM; against PI3K α, less than 0.1 µM.

Regarding `Nc1nc2cc(-c3ccc4ncc(-c5cccnc5)nc4c3)ccc2o1`, the IC50 is less than 10 µM against mTORC; less than 1 µM on PI3K γ; more than 10 µM on PI3K δ; more than 10 µM against PI3K β; less than 0.1 µM against PI3K α.

In the case of `Nc1nc2cc(-c3ccc4ncc(N5CC(N6CCN(CCO)CC6)C5)cc4n3)ccc2o1`, the concentration for half-maximal inhibition (IC50) against mTORC was more than 10 µM; on PI3K γ, less than 1 µM; against PI3K δ, less than 1 µM; against PI3K β, less than 10 µM; against PI3K α, less than 0.1 µM.

Consider `CN1CC2CN(c3cnc4ccc(-c5ccc6oc(N)nc6c5)nc4n3)CC2C1` (stereo not drawn), for which the half-maximal inhibitory concentration (IC50) on mTORC is more than 10 µM; at PI3K γ, less than 10 µM; against PI3K δ, less than 1 µM; at PI3K β, less than 1 µM; against PI3K α, less than 0.1 µM.

With `C[C@H]1CN(C2CN(c3cnc4ccc(-c5ccc6oc(N)nc6c5)nc4c3)C2)CCN1`, the half-maximal inhibitory concentration (IC50) against mTORC is more than 10 µM; on PI3K γ it was less than 10 µM; on PI3K δ it was less than 1 µM; at PI3K β, less than 10 µM; on PI3K α, less than 0.1 µM.

As to `CN1CC(C(=O)N2CCN(c3cnc4ccc(-c5ccc6oc(N)nc6c5)cc4n3)CC2)C1`, the IC50 at mTORC was more than 10 µM; on PI3K γ, less than 1 µM; against PI3K δ it was less than 1 µM; on PI3K β, less than 1 µM; at PI3K α it was less than 0.1 µM.

For the compound `Nc1nc2cccc(-c3ccc4nccc(-c5ccncc5)c4c3)c2o1` [Compound 15], the half-inhibitory concentration (IC50) on mTORC is less than 0.1 µM; at PI3K γ, less than 1 µM; at PI3K δ, less than 1 µM; against PI3K β, less than 0.1 µM; against PI3K α it was less than 0.1 µM.

`C[C@H]1CN(C2CN(c3cnc4ccc(-c5ccc6oc(N)nc6c5)nc4c3)C2)CCN1C`: the half-maximal inhibitory concentration (IC50) on mTORC is more than 10 µM; on PI3K γ, less than 10 µM; against PI3K δ, less than 1 µM; at PI3K β, less than 10 µM; on PI3K α, less than 0.1 µM.

`CC1(C)CN(C2CN(c3cnc4ccc(-c5ccc6oc(N)nc6c5)nc4n3)C2)CCN1`: the half-maximal inhibitory concentration (IC50) against mTORC is more than 10 µM; at PI3K γ, less than 10 µM; against PI3K δ, less than 1 µM; against PI3K β it was less than 10 µM; at PI3K α, less than 0.1 µM.

Turning to `Nc1nc2cc(-c3ccn4ncc(-c5ccncc5)c4n3)ccc2o1`, the concentration for half-maximal inhibition (IC50) on mTORC, on PI3K γ, against PI3K δ, at PI3K β and at PI3K α was less than 0.1 µM each time.

Consider `CCOC(=O)N1CCN(c2cnc3ccc(-c4ccc5oc(N)nc5c4)cc3n2)CC1`, for which the IC50 at mTORC is less than 10 µM; on PI3K γ it was less than 10 µM; against PI3K δ, less than 10 µM; against PI3K β, less than 10 µM; against PI3K α, less than 0.1 µM.

With `CC(=O)Nc1nc2ccc(-c3ccc4nccc(-c5ccncc5)c4c3)cc2s1` [Compound 2], the IC50 against mTORC was more than 10 µM; at PI3K γ it was less than 1 µM; at PI3K δ, more than 10 µM; at PI3K β it was more than 10 µM; on PI3K α, less than 1 µM.

As for `Nc1nc2cc(-c3ccc4ncc(N5CCOCC5)nc4c3)ccc2o1`, the IC50 is less than 10 µM against mTORC; less than 0.1 µM at PI3K γ; more than 10 µM at PI3K δ; less than 1 µM against PI3K β; less than 0.1 µM against PI3K α.

On to `CN1CCN(C2CN(c3cnc4ccc(-c5ccc6oc(N)nc6c5)nc4n3)C2)CC1`, for which the IC50 against mTORC is more than 10 µM; at PI3K γ, more than 10 µM; against PI3K δ, less than 1 µM; against PI3K β it was less than 10 µM; at PI3K α it was less than 0.1 µM.

For `CS(=O)(=O)N1CCN(Cc2cc3nc(-c4ccc5oc(N)nc5c4)nc(N4CCOCC4)c3s2)CC1`, the IC50 was less than 1 µM against mTORC; less than 0.1 µM on PI3K γ; less than 1 µM on PI3K δ; less than 1 µM against PI3K β; less than 0.1 µM against PI3K α.

In the case of `Nc1nc2cc(-c3ccc4ncc(N5CC(N6CCOCC6)C5)cc4n3)ccc2o1`, the half-inhibitory concentration (IC50) was more than 10 µM on mTORC; less than 1 µM at PI3K γ; less than 10 µM against PI3K δ; less than 10 µM on PI3K β; less than 0.1 µM on PI3K α.

As to `CCN1CCN(C2CN(c3cnc4ccc(-c5ccc6oc(N)nc6c5)nc4n3)C2)CC1`, the IC50 on mTORC is less than 10 µM; on PI3K γ it was less than 10 µM; at PI3K δ, less than 10 µM; against PI3K β it was less than 10 µM; on PI3K α, less than 0.1 µM.

Turning to `Nc1ccc2cc(-c3ccc4nccc(-c5ccncc5)c4c3)ccc2n1` [Compound 5], the half-maximal inhibitory concentration (IC50) against mTORC was less than 1 µM; on PI3K γ, less than 1 µM; on PI3K δ, less than 10 µM; against PI3K β, more than 10 µM; against PI3K α it was less than 1 µM.

With `Cc1nc2ccc(-c3ccc4oc(N)nc4c3)nn2c1-c1ccncc1`, the IC50 against mTORC is less than 1 µM; on PI3K γ it was less than 0.1 µM; against PI3K δ, more than 10 µM; against PI3K β it was less than 1 µM; at PI3K α it was less than 0.1 µM.

On to `Cn1c(=O)n(-c2ccc(C(C)(C)C#N)cc2)c2c3cc(-c4ccc5oc(N)nc5c4)ccc3ncc21` [Compound 7], for which the IC50 at mTORC, at PI3K γ, against PI3K δ, on PI3K β and at PI3K α was less than 0.1 µM throughout.

Take `Nc1nc2cc(-c3ccc4ncc(N5CCN(C(=O)C6(N)CC6)CC5)nc4n3)ccc2o1`: the 50% inhibitory concentration (IC50) against mTORC is less than 10 µM; on PI3K γ it was less than 0.1 µM; against PI3K δ it was less than 10 µM; on PI3K β, less than 10 µM; on PI3K α it was less than 0.1 µM.

For `CC(=O)N1CCC(Nc2ncnc3ccc(-c4ccc5oc(N)nc5c4)cc23)CC1`, the half-inhibitory concentration (IC50) on mTORC is less than 1 µM; on PI3K γ, less than 0.1 µM; against PI3K δ it was less than 1 µM; against PI3K β, less than 10 µM; against PI3K α, less than 0.1 µM.

Take `Nc1nc2cc(-c3ccc4ncc(N5CC(N6CCN(CC7CC7)CC6)C5)nc4n3)ccc2o1`: the concentration for half-maximal inhibition (IC50) at mTORC is more than 10 µM; on PI3K γ, less than 10 µM; against PI3K δ, less than 10 µM; against PI3K β it was less than 10 µM; against PI3K α it was less than 0.1 µM.

As to `Nc1nc2cc(-c3ccc4ncc(N5CCC(N6CCOCC6)CC5)nc4c3)ccc2o1`, the IC50 at mTORC is more than 10 µM; at PI3K γ it was less than 1 µM; on PI3K δ, less than 1 µM; against PI3K β it was less than 1 µM; on PI3K α, less than 0.1 µM.

In the case of `CC(=O)N1CCC(N(C)c2ncnc3ccc(-c4ccc5oc(N)nc5c4)cc23)CC1`, the IC50 against mTORC is more than 10 µM; on PI3K γ, less than 1 µM; against PI3K δ it was less than 1 µM; against PI3K β it was less than 1 µM; against PI3K α, less than 0.1 µM.

For `CC1(C)CN(C2CN(c3cnc4ccc(-c5ccc6oc(N)nc6c5)nc4c3)C2)CCN1`, the IC50 on mTORC is more than 10 µM; at PI3K γ, less than 1 µM; on PI3K δ it was less than 1 µM; on PI3K β, less than 10 µM; against PI3K α it was less than 0.1 µM.

With `CN1CCN(C2CN(c3cnc4ccc(-c5ccc6oc(N)nc6c5)nc4c3)C2)CC1=O`, the concentration for half-maximal inhibition (IC50) at mTORC is less than 10 µM; on PI3K γ, less than 0.1 µM; against PI3K δ it was less than 1 µM; against PI3K β, less than 10 µM; against PI3K α it was less than 0.1 µM.

With `Nc1nc2cc(-c3ccc4ncc(N5CCNC(=O)C5)nc4c3)ccc2o1`, the IC50 against mTORC was more than 10 µM; at PI3K γ it was less than 1 µM; against PI3K δ it was more than 10 µM; on PI3K β, less than 1 µM; on PI3K α, less than 0.1 µM.

On to `Nc1nc2cc(-c3ccc4ncc(N5CC(N6CCN(CC7CC7)CC6)C5)cc4n3)ccc2o1`, for which the 50% inhibitory concentration (IC50) against mTORC was more than 10 µM; on PI3K γ it was less than 10 µM; against PI3K δ, less than 1 µM; on PI3K β it was less than 10 µM; on PI3K α, less than 0.1 µM.

Take `CC(C)(N)C(=O)N1CCN(c2cnc3ccc(-c4ccc5oc(N)nc5c4)nc3n2)CC1`: the IC50 at mTORC is more than 10 µM; on PI3K γ, less than 10 µM; at PI3K δ it was less than 10 µM; on PI3K β it was less than 10 µM; on PI3K α, less than 0.1 µM.

Regarding `Cc1nccn1C1CN(c2cnc3ccc(-c4ccc5oc(N)nc5c4)nc3n2)C1`, the 50% inhibitory concentration (IC50) is more than 10 µM at mTORC; less than 10 µM on PI3K γ; less than 10 µM at PI3K δ; less than 10 µM at PI3K β; less than 0.1 µM at PI3K α.

With `CN(C)CC(=O)N1CCN(c2cnc3ccc(-c4ccc5oc(N)nc5c4)cc3n2)CC1` [drawing 329], the IC50 at mTORC is more than 10 µM; at PI3K γ, less than 1 µM; against PI3K δ it was less than 1 µM; on PI3K β, less than 1 µM; against PI3K α, less than 0.1 µM.

On to `Nc1nc2cc(-c3ccc4ncc(C(=O)N5CCOCC5)n4c3)ccc2o1`, for which the IC50 against mTORC was less than 10 µM; at PI3K γ, less than 10 µM; against PI3K δ it was less than 10 µM; against PI3K β, less than 10 µM; on PI3K α it was less than 0.1 µM.

Turning to `Nc1nc2cc(-c3ccc4ncc(N5CC(C(=O)N6CCOCC6)C5)nc4c3)ccc2o1` [drawing 359], the IC50 at mTORC is less than 10 µM; at PI3K γ, less than 1 µM; at PI3K δ it was less than 1 µM; at PI3K β it was less than 1 µM; against PI3K α it was less than 0.1 µM.

With `CC(C)N1CCC(n2cnc3ccc(-c4ccc5oc(N)nc5c4)cc3c2=O)CC1`, the IC50 against mTORC was less than 10 µM; on PI3K γ it was less than 10 µM; at PI3K δ it was more than 10 µM; on PI3K β, less than 10 µM; on PI3K α, less than 0.1 µM.

Consider `Nc1nc2cc(-c3ccc4ncnc(OC5CCOCC5)c4c3)ccc2o1` [Compound 47], for which the half-maximal inhibitory concentration (IC50) at mTORC is less than 0.1 µM; at PI3K γ it was less than 1 µM; against PI3K δ it was less than 1 µM; at PI3K β it was less than 1 µM; against PI3K α it was less than 0.1 µM.
